We go through 31 compounds from patent US8609715B2, “Heteroarylcarboxylic acid ester derivative” (Ajinomoto Co., Inc., priority 2009, dated 2013).

Where a name gives a salt, the structure may show the parent alone.

Sequence of recombinant human enteropeptidase (P98073 whole entry): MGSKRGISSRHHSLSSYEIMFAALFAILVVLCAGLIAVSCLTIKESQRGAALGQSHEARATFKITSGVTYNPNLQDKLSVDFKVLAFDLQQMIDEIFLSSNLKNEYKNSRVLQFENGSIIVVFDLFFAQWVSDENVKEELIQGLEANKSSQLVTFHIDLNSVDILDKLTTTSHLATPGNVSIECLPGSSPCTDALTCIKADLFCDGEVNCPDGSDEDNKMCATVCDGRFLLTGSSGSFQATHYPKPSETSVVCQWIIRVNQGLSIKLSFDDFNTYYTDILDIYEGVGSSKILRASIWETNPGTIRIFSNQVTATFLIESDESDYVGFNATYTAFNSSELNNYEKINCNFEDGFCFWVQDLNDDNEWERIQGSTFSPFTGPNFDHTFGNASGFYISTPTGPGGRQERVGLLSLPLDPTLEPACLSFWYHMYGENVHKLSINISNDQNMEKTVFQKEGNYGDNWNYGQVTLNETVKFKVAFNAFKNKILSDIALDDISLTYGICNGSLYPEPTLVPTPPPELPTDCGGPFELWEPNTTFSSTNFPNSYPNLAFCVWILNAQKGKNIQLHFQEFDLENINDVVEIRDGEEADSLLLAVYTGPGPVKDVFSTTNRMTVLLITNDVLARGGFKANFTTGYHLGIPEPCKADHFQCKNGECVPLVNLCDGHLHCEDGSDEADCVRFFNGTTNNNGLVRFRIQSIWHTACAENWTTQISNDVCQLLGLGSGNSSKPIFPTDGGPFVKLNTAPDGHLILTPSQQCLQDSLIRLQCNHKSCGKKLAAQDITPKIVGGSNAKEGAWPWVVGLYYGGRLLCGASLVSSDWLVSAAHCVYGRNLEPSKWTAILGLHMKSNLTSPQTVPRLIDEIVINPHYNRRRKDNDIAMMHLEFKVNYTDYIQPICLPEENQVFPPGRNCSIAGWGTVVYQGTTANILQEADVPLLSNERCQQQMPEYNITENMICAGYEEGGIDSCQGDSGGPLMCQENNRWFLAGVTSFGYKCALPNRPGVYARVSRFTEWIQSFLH

The assay concerns the target recombinant human enteropeptidase (Homo sapiens (Human), UniProt P98073). Put plainly: Measurement of enteropeptidase inhibitory activity. Format: biochemical. The conditions noted are these: Dixon plot. On the procedure: Measurement of Enteropeptidase Inhibitory Activity
Using a 96 well plate (#3915, Costar), a test compound (25 μL), 400 mM Tris-HCl buffer (pH 8.0, 25 μL) and 0.5 mg/mL fluorescence enzyme substrate (Gly-Asp-Asp-Asp-Asp-Lys-β-Naphtylamide, 25 μL) were mixed, and recombinant human enteropeptidase (R&D Systems, Inc., 25 μL) was added. Using a fluorescence plate reader fmax (Molecular Devices, Inc.), the reaction rate was measured from the time-course changes at excitation wavelength 320 nm and fluorescence wavelength 405 nm. The Ki value was calculated from the concentration of the test compound, reciprocal of reaction rate, and Km value of the enzyme substrate, and by using Dixon plot.
Usually Ki stands for the equilibrium dissociation constant of an inhibitor or competing ligand from its target. As for `CCC(Cc1ccc(C(=O)Oc2ccc(C(=N)N)cc2)o1)C(=O)O` (stereo not shown) [Compound A-29, 3-[5-(4-amidinophenoxycarbonyl)furan-2-yl]-2-ethylpropionic acid trifluoroacetic acid salt], the inhibitory constant (Ki) came out at 0.82 nM. With `CC[C@H](Cc1ccc(C(=O)Oc2ccc(C(=N)N)cc2)o1)C(=O)N[C@H](CCC(=O)O)C(=O)O` [Compound A-30], the inhibition constant (Ki) is 1.03 nM. `CCC(Cc1ccc(C(=O)Oc2ccc(C(=N)N)cc2)o1)C(=O)N[C@H](CC(=O)O)C(=O)O` (stereo partly shown) [Compound A-31]: the Ki was found to be 0.5 nM. In the case of `N=C(N)c1ccc(OC(=O)c2ccc(CC(=O)O)o2)cc1` [Compound A-32, 5-(4-amidinophenoxycarbonyl)furan-2-ylacetic acid trifluoroacetic acid salt], the Ki was determined as 0.62 nM. Take `CC(Cc1ccc(C(=O)Oc2ccc(C(=N)N)cc2F)o1)C(=O)O` (stereo not shown) [Compound A-33]: the Ki worked out at 0.65 nM. Take `CCCC(Cc1ccc(C(=O)Oc2ccc(C(=N)N)cc2)o1)C(=O)O` (stereo not shown) [Compound A-34]: the Ki stood at 0.98 nM. On to `CC(Cc1ccc(C(=O)Oc2ccc(C(=N)N)cc2F)o1)C(=O)N[C@H](CC(=O)O)C(=O)O` (stereo partly shown) [Compound A-35, N-{3-[5-(4-amidino-2-fluorophenoxycarbonyl)furan-2-yl]-2-methylpropanoyl}-N-(D)-aspartic acid trifluoroacetic acid salt], for which the inhibitory constant (Ki) worked out at 0.25 nM. Consider `CC(Cc1ccc(C(=O)Oc2ccc(C(=N)N)cc2)o1)S(=O)(=O)O` (stereo not shown) [Compound A-36, 1-[5-(4-amidinophenoxycarbonyl)furan-2-yl]propane-2-sulfonic acid trifluoroacetic acid salt], for which the Ki is 0.58 nM. In the case of `N=C(N)c1ccc(OC(=O)c2ccc(CCC(=O)O)o2)cc1` [Compound A-37] it was 0.64 nM; in that of `N=C(N)c1ccc(OC(=O)c2ccc(CCC(=O)N[C@@H](CC(=O)O)C(=O)O)o2)cc1` [Compound A-38], 0.57 nM; in that of `N=C(N)c1ccc(OC(=O)c2ccc(CC(=O)N[C@@H](CC(=O)O)C(=O)O)o2)cc1` [Compound A-39, N-[5-(4-amidinophenoxycarbonyl)furan-2-ylacetyl]-(L)-aspartic acid trifluoroacetic acid salt], 0.67 nM. For `C[C@H](Cc1ccc(C(=O)Oc2ccc(C(=N)N)cc2)o1)C(=O)O` [Compound A-41, 3-[5-(4-amidinophenoxycarbonyl)furan-2-yl]-2S-methylpropionic acid trifluoroacetic acid salt], the Ki is 0.5 nM.

Regarding `C[C@@H](Cc1ccc(C(=O)Oc2ccc(C(=N)N)cc2)o1)C(=O)N[C@@H](CC(=O)O)C(=O)O` [Compound A-43, N-{3-[5-(4-amidinophenoxycarbonyl)-furan-2-yl]-2S-methylpropionyl}-L-aspartic acid trifluoroacetic acid salt], the Ki is 0.4 nM. Take `C[C@H](Cc1ccc(C(=O)Oc2ccc(C(=N)N)cc2)o1)C(=O)N[C@@H](CC(=O)O)C(=O)O` [Compound A-44, N-[3-[5-(4-amidinophenoxycarbonyl)-furan-2-yl]-2R-methylpropionyl]-L-aspartic acid trifluoroacetic acid salt]: the Ki came out at 0.33 nM. For `C[C@@H](Cc1ccc(C(=O)Oc2ccc(C(=N)N)cc2)o1)C(=O)N[C@H](CC(=O)O)C(=O)O` [Compound A-45, N-{3-[5-(4-amidinophenoxycarbonyl)-furan-2-yl]-2S-methylpropionyl}-D-aspartic acid trifluoroacetic acid salt], the Ki came to 0.46 nM. Then `C[C@H](Cc1ccc(C(=O)Oc2ccc(C(=N)N)cc2)o1)C(=O)N[C@H](CC(=O)O)C(=O)O` [Compound A-46, N-{3-[5-(4-amidinophenoxycarbonyl)-furan-2-yl]-2R-methylpropionyl}-D-aspartic acid trifluoroacetic acid salt], with 0.35 nM. Then `CC(Cc1ccc(C(=O)Oc2ccc(C(=N)N)cc2)o1)C(=O)NCCc1ccccc1` (stereo not shown) [Compound A-47, 5-{2-methyl-2-[(2-phenylethyl)-carbamoyl]ethyl}furan-2-carboxylic acid 4-amidinophenyl ester trifluoroacetic acid salt], with 1.9 nM; and `CC(C)CCNC(=O)C(C)Cc1ccc(C(=O)Oc2ccc(C(=N)N)cc2)o1` (stereo not shown) [Compound A-48], with 1.3 nM. Regarding `CC(Cc1ccc(C(=O)Oc2ccc(C(=N)N)cc2)o1)C(=O)NCCN(C)C` (stereo not shown) [Compound A-49], the inhibition constant Ki turned out to be 7.6 nM.

For the compound `CC(Cc1ccc(C(=O)Oc2ccc(C(=N)N)cc2)o1)C(=O)NCCO` (stereo not shown) [Compound A-50], the Ki is 4.4 nM. On to `CC(Cc1ccc(C(=O)Oc2ccc(C(=N)N)cc2)o1)C(=O)N1CCCC1` (stereo not shown) [Compound A-51], for which the Ki is 4.9 nM. On to `CC(Cc1ccc(C(=O)Oc2ccc(C(=N)N)cc2)o1)C(=O)N1CCCC(C(=O)O)C1` (stereo not shown) [Compound A-52, N-{3-[5-(4-amidinophenoxycarbonyl)-furan-2-yl]-2-methylpropanoyl}nipecotic acid trifluoroacetic acid salt], for which the inhibition constant (Ki) is 2.5 nM. In the case of `C=CCN(CC(=O)O)C(=O)CCc1ccc(C(=O)Oc2ccc(C(=N)N)cc2)o1` [Compound A-55, N-{3-[5-(4-amidinophenoxycarbonyl)-furan-2-yl]-propionyl}-N-allylglycine trifluoroacetic acid salt], the inhibitory constant (Ki) is 1.3 nM. Then `CC(Cc1ccc(C(=O)Oc2ccc(C(=N)N)cc2)o1)C(=O)NCP(=O)(O)O` (stereo not shown) [Compound A-56], with 1.1 nM; and `CC(Cc1ccc(C(=O)Oc2ccc(C(=N)N)cc2)o1)C(=O)N[C@@H](CS(=O)(=O)O)C(=O)O` (stereo partly shown) [Compound A-57], with 0.39 nM; and `CC(CCC(=O)O)Cc1ccc(C(=O)Oc2ccc(C(=N)N)cc2)o1` (stereo not shown) [Compound A-58, 5-[5-(4-amidinophenoxycarbonyl)furan-2-yl]-4-methylpentanoic acid trifluoroacetic acid salt], with 0.7 nM. Turning to `CC(CCC(=O)N[C@@H](CC(=O)O)C(=O)O)Cc1ccc(C(=O)Oc2ccc(C(=N)N)cc2)o1` (stereo partly drawn) [Compound A-59, N-{5-[5-(4-amidinophenoxycarbonyl)furan-2-yl]-4-methylpentanoyl}-L-aspartic acid trifluoroacetic acid salt], the Ki stood at 0.35 nM. For the compound `N=C(N)c1ccc(OC(=O)c2ccc(CC(CCC(=O)O)C(=O)O)o2)cc1` (stereo not shown) [Compound A-60, 5-[5-(4-amidinophenoxycarbonyl)furan-2-yl]-4-carboxypentanoic acid trifluoroacetic acid salt], the Ki was 0.31 nM. Turning to `N=C(N)c1ccc(OC(=O)c2ccc(CC(CCC(=O)O)C(=O)N[C@@H](CC(=O)O)C(=O)O)o2)cc1` (stereo partly drawn) [Compound A-61, N-{3-[5-(4-amidinophenoxycarbonyl)-furan-2-yl]-2-(carboxyethyl)propanoyl}-L-aspartic acid trifluoroacetic acid salt], the Ki turned out to be 0.42 nM. As to `CC(Cc1cc(C(=O)Oc2ccc(C(=N)N)cc2)co1)C(=O)N[C@@H](CC(=O)O)C(=O)O` (stereo partly drawn) [Compound A-62, N-{3-[4-(4-amidinophenoxycarbonyl)-furan-2-yl]-2-methylpropanoyl}-L-aspartic acid trifluoroacetic acid salt], the Ki was found to be 2.1 nM. Then `CC(Cc1cc(C(=O)Oc2ccc(C(=N)N)cc2F)co1)C(=O)O` (stereo not shown) [Compound A-63, 3-[4-(4-amidino-2-fluorophenoxycarbonyl)furan-2-yl]-2-methylpropanoic acid trifluoroacetic acid salt], with 0.53 nM.
